According to publication PMC12267056 (Nature, 2025):
Where “and” joins values, the source holds several entries; their conditions need not be identical. Identical values can stand only once. Like-named read-outs stand apart in the source and are kept apart here.

Columns and labels:
Design in all cases: made in house; host or cells: Saccharomyces cerevisiae FGY217
[1] = biological target: T1, human SLC35B1 (wild type) (Homo sapiens, UniProt P78383); assay: Uptake of [3H]ATP or [3H]ADP into nucleotide-preloaded SLC35B1 proteoliposomes; type: biochemical; settings: for radiolabelled nucleotide uptake into proteoliposomes preloaded with the named nucleotide (individual replicates; ATP-loaded about 100): 2 minutes, sheet ED 6G, internal (preloaded) nucleotide as labelled; for [3H]ADP import with nucleotide preloading, relative to ATP preloading: liposomes preloaded with 1 mM nucleotide; for Single time point (1 min) uptake of [3H]-ADP by proteoliposomes preloaded with the nucleotide: preload 1 mM of the labelled nucleotide
T1 sequence (P78383 1-322): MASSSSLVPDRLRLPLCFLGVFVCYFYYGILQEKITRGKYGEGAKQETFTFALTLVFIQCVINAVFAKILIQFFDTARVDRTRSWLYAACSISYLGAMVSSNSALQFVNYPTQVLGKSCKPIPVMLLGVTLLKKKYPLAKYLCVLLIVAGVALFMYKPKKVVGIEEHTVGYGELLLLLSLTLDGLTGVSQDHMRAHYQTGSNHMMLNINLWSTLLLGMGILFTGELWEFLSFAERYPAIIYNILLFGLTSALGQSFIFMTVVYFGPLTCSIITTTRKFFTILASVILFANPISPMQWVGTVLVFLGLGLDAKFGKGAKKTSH

[2] = biological target: T1, human SLC35B1 (wild type); assay: Competitive uptake assay: [3H]ADP uptake with 1 mM cold nucleotide; type: biochemical; settings: for Normalized SLC35B1-mediated uptake of [3H]ADP in competition with cold nucleotide: 1 mM external cold nucleotide, proteoliposomes preloaded with 1 mM ATP; for [3H]ADP uptake in the presence of cold competitor nucleotide (individual replicates; no-competitor control about 100): competitor 1mM, sheet ED 6F, SLC35B1 proteoliposomes
[3] = biological target: T1, human SLC35B1 (wild type); assay: IC50 for competitive inhibition of [3H]ADP uptake in proteoliposomes; type: biochemical; settings: for IC50: wild-type SLC35B1 proteoliposomes
[4] = biological target: T1, human SLC35B1 (wild type); type: binding; settings: for ΔTm (average melting temperature increase) / ΔTm, individual titrations (source data): 1 mM nucleotide; for ΔTm (average melting temperature increase): purified wild-type SLC35B1–GFP; for ΔTm, individual titrations (source data): wild-type SLC35B1–GFP; for GFP fluorescence after heating (source data Fig 1B): 1 mM substrate
[5] = biological target: T1, human SLC35B1 (wild type); assay: STD NMR of nucleotide interaction with SLC35B1 proteoliposomes; type: binding; settings: for Total STD amplification factor (STD NMR signal): 500 μM substrate
[6] = external cold nucleotide 100 uM

With `O=c1ccn([C@@H]2O[C@H](CO[P@@](=O)(O)O[P@@](=O)(O)OP(=O)(O)O)[C@@H](O)[C@H]2O)c(=O)[nH]1` (stereo in doubt) [UTP, uridine triphosphate] the “radiolabelled nucleotide uptake into proteoliposomes preloaded with the named nucleotide (individual replicates; ATP-loaded about 100)” value [1] was 26.76 and 31.4277 and 36.8954 and 31.1375 and 33.6917 and 28.9625, the “[3H]ADP import with nucleotide preloading, relative to ATP preloading” value [1] was “approximately 30%” and the “Normalized SLC35B1-mediated uptake of [3H]ADP in competition with cold nucleotide” value (“Normalized SLC35B1-mediated uptake” below) [2] was “strong competition”. For the same compound, the “[3H]ADP uptake in the presence of cold competitor nucleotide (individual replicates; no-competitor control about 100)” value [2] was 11.6037 and 12.7556 and 12.0037 and 16.836 and 18.152 and 16.556, the “Normalized [3H]-ADP uptake activity (IC50 curve)” value (“Normalized … (IC50 curve)” below) ([3]; external cold nucleotide 0.1 uM, 0.1 µM) was 98.9492 and 98.9864 and the activity at 0.1 µM ([3]; external cold nucleotide 0.1 uM, read-out: Normalized [3H]-ADP uptake activity (IC50 curve)) was 102%. For the same compound, the “Normalized … (IC50 curve)” value ([3]; external cold nucleotide 1 uM, 1 µM) was 96.2847 and 99.2915, the activity at 1 µM ([3]; external cold nucleotide 1 uM, read-out: Normalized [3H]-ADP uptake activity (IC50 curve)) was 90.8% and the “Normalized … (IC50 curve)” value ([3]; external cold nucleotide 10 uM, 10 µM) was 69.0203 and 73.0881. For the same compound, the activity at 10 µM ([3]; external cold nucleotide 10 uM, read-out: Normalized [3H]-ADP uptake activity (IC50 curve)) was 65%, the “Normalized … (IC50 curve)” value ([3]; external cold nucleotide 100 uM, 100 µM) was 29.139 and 27.9119 and the activity at 100 µM ([3]; external cold nucleotide 100 uM, read-out: Normalized [3H]-ADP uptake activity (IC50 curve)) was 28.6%.

With `Nc1ncnc2c1ncn2[C@@H]1O[C@H](COP(=O)(O)O)[C@@H](O)[C@H]1O` [AMP, adenosine monophosphate] the “ΔTm (average melting temperature increase)” value [4] was 1.1 °C, the “ΔTm, individual titrations (source data)” value [4] was 1.3 and 1.29 and 0.78 and the “GFP fluorescence after heating (source data Fig 1B)” value (shortened to “GFP fluorescence after heating”) ([4]; temperature 4) was 106.601 and 104.432 and 95.3539 and 89.0072 and 98.5673 and 95.7555. For the same compound, the “GFP fluorescence after heating” value ([4]; temperature 10) was 120.178 and 88.2039 and 92.06 and 93.2651, the “GFP fluorescence after heating” value ([4]; temperature 20) was 106.039 and 98.5673 and 92.7027 and 90.0516 and 90.7747 and 95.3539 and the “GFP fluorescence after heating” value ([4]; temperature 30) was 90.132 and 77.6476 and 78.8286 and 77.1736 and 79.5837 and 81.6163. The “GFP fluorescence after heating” value ([4]; temperature 40) was 21.7011 and 19.6043 and 15.5232 and 15.3143 and 15.5553 and 16.68 and the “GFP fluorescence after heating” value ([4]; temperature 50) was 5.771 and 5.947 and 3.195 and 3.312 and 3.387 and 3.526.

In the case of `Nc1ncnc2c1ncn2[C@@H]1O[C@H](COP(=O)(O)OP(=O)(O)NP(=O)(O)O)[C@@H](O)[C@H]1O` [AMP–PNP, adenylyl imidodiphosphate], the “1H integral (off-resonance spectrum)” value [5] is reported as 2.67E+09, the STD integral [5] is reported as 3.83E+08 and the “Total STD amplification factor (STD NMR signal)” value (“Total STD amplification factor” below) [5] is reported as “equivalent”. For the same compound, the “Total STD amplification factor” value ([5]; listed as AMP-PNP) was 7.167, the “Single time point (1 min) uptake of [3H]-ADP by proteoliposomes preloaded with the nucleotide” value [1] was “equivalent” and the “Single time point (1 min) uptake of [3H]-ADP by proteoliposomes preloaded with the nucleotide” value ([1]; listed as AMP-PNP) was 7.11 and 6.164 and 6.553. The “Normalized … (IC50 curve)” value ([3]; external cold nucleotide 0.01 uM, listed as ANP-PNP) was 99.81 and 108.605 and 100.75 and 104.879 and 96.5643 and 94.0286, the “Normalized … (IC50 curve)” value ([3]; external cold nucleotide 0.1 uM, listed as ANP-PNP) was 114.525 and 102.005 and 84.315 and 93.8643 and 84.5 and 91.8286 and the “Normalized … (IC50 curve)” value ([3]; external cold nucleotide 1 uM, listed as ANP-PNP) was 100.22 and 103.765 and 80.9 and 74.0571 and 74.9429.

In the case of `Nc1ccn([C@@H]2O[C@H](COP(=O)(O)OP(=O)(O)O)[C@@H](O)[C@H]2O)c(=O)n1` [CDP], the “Normalized SLC35B1-mediated uptake” value [2] is reported as “more effective at competition” and the “[3H]ADP uptake in the presence of cold competitor nucleotide (individual replicates; no-competitor control about 100)” value [2] is reported as 1.97 and 2.619 and 2.963 and 13.22 and 12.328 and 14.044.

For `Nc1ccn([C@@H]2O[C@H](COP(=O)(O)OP(=O)(O)OP(=O)(O)O)[C@@H](O)[C@H]2O)c(=O)n1` [CTP, cytidine triphosphate], the “ΔTm, individual titrations (source data)” value [4] was 2.66 and 3.39 and 2.37, the “radiolabelled nucleotide uptake into proteoliposomes preloaded with the named nucleotide (individual replicates; ATP-loaded about 100)” value [1] was 34.7169 and 32.8215 and 35.0431 and 28.1 and 30.3083 and 22.2 and the “[3H]ADP import with nucleotide preloading, relative to ATP preloading” value [1] was “approximately 30%”. The “Normalized SLC35B1-mediated uptake” value [2] was “strong competition”, the “[3H]ADP uptake in the presence of cold competitor nucleotide (individual replicates; no-competitor control about 100)” value [2] was 12.014 and 11.0419 and 12.1535 and 17.168 and 20.672 and 19.484 and the “Normalized … (IC50 curve)” value ([3]; external cold nucleotide 0.1 uM) was 103.844 and 97.7104 and 98.4453. The “Normalized … (IC50 curve)” value ([3]; external cold nucleotide 1 uM) was 95.8764 and 97.0509 and 95.3887, the “Normalized … (IC50 curve)” value ([3]; external cold nucleotide 10 uM) was 67.7481 and 70.5094 and 62.095 and the “Normalized … (IC50 curve)” value [3, 6] was 15.0773 and 20.2633 and 19.2811. The IC50 [3] was 21 µM.

With `Nc1nc2c(ncn2[C@@H]2O[C@H](COP(=O)(O)OP(=O)(O)OP(=O)(O)O)[C@@H](O)[C@H]2O)c(=O)[nH]1` [GTP] the “ΔTm (average melting temperature increase)” value [4] was “poor thermostabilization”, the “ΔTm, individual titrations (source data)” value [4] was 1.35 and 2.4 and 1.45 and the “1H integral (off-resonance spectrum)” value [5] was 4.09E+10. For the same compound, the STD integral [5] was 2.66E+09, the “Total STD amplification factor” value [5] was “low STD NMR signals” and the “Normalized SLC35B1-mediated uptake” value [2] was “only weak competition”. The “[3H]ADP uptake in the presence of cold competitor nucleotide (individual replicates; no-competitor control about 100)” value [2] was 82.2279 and 86.0047 and 83.9395 and 58.276 and 54.036 and 48.82, the “Normalized … (IC50 curve)” value ([3]; external cold nucleotide 1 uM) was 88.1 and 101.287 and 103.95 and the “Normalized … (IC50 curve)” value ([3]; external cold nucleotide 10 uM) was 84.475 and 90.925 and 119.487. The “Normalized … (IC50 curve)” value [3, 6] was 92.075 and 105.213 and 83.1625, the “Normalized … (IC50 curve)” value ([3]; external cold nucleotide 1000 uM) was 48.75 and 67.325 and 73.7625 and the “Normalized … (IC50 curve)” value ([3]; external cold nucleotide 100000 uM) was 2.4125 and 1.7125 and 1.675. It also gave an IC50 [3] of 3500 µM.

`O=c1ccn([C@@H]2O[C@H](COP(=O)(O)OP(=O)(O)O)[C@@H](O)[C@H]2O)c(=O)[nH]1` [UDP, uridine diphosphate] was tested, and the “Normalized SLC35B1-mediated uptake” value [2] was “more effective at competition” and the “[3H]ADP uptake in the presence of cold competitor nucleotide (individual replicates; no-competitor control about 100)” value [2] was 0.8481 and 1.885 and 1.122 and 21.524 and 20.444 and 14.96.

For `O=c1ccn([C@@H]2O[C@H](COP(=O)(O)OP(=O)(O)OP(=O)(O)O)[C@@H](O)[C@H]2O)c(=O)[nH]1` [UTP, uridine triphosphate], the IC50 [3] was 29 µM and 29.1 µM.

In the case of `Nc1ncnc2c1ncn2[C@@H]1O[C@H](COP(=O)(O)OP(=O)(O)OP(=O)(O)O)[C@@H](O)[C@H]1O` [[^3H]ATP], the “One-minute uptake of [3H]ATP by SLC35B1 proteoliposomes” value ([1]; Unloaded (preloaded with buffer)) is reported as 0.4851.
